Literature values, collected in patent US20140171466A1, “PAIN MANAGEMENT IN SICKLE CELL ANEMIA” (priority 2012, published 2014).
“Also recorded” adds a separate entry of the source. Where two headings read alike, the source gives them in different places.

Legend:
[1] = system: nonhuman primates; settings: systemic administration
[2] = system: mice; settings: systemically administered
[3] = system: BERK sickle mice
[4] = system: BERK mice
[5] = compound on its own
[6] = in vivo

O=C1NCN(c2ccccc2)C12CCN(C1CCC3CCCc4cccc1c43)CC2 (stereo in doubt) [Compound 7, ((1 S,3aS)-8-(2,3,3a,4,5,6-hexahydro-1H-phenalen-1-yl)-1-phenyl-1,3,8-triaza-spiro[4.5]decan-4-one)]
spinal anti-nociceptive action [1]: spinal anti-nociceptive action of NOP agonists has been confirmed | morphine conditioned place preference (CPP) [2]: block morphine conditioned place preference (CPP)

CCCCCCC(C)(C)c1ccc([C@@H]2C[C@H](O)CC[C@H]2CCCO)c(O)c1 [CP 55,940]
hyperalgesia ([3]; low dose 0.3 mg/kg): attenuated hyperalgesia | deep hyperalgesia incited by H/R [4]: ameliorated

O=C1Cc2ccccc2N1C1CCN(C2CCCCCCC2)CC1 [Compound 3, 1-(1-cyclooctylpiperidin-4-yl)-indolin-2-one]
reward in the CPP paradigm [5]: not rewarding on its own

CC1(N2CCC(n3c([C@@H]4CCCNC4)nc4ccccc43)CC2)CCCCCCC1 [Compound 10, 1-[1-(1-methylcyclooctyl)-4-piperidinyl]-2-[(3R)-3-piperidinyl]-1H-benzimidazole]
anxiolytic effects [6]: exhibits anxiolytic effects | effect on memory or locomotion [6]: no effect on memory or locomotion

CN1CC[C@]23c4c5ccc(O)c4O[C@H]2[C@@H](O)C=C[C@H]3[C@H]1C5 [morphine]
hyperalgesia ([3]; high dose 20 mg/kg, 20 mg/kg): effective; also recorded: markedly attenuated
